Source: US9072901B2, “Cardiac neuromodulation and methods of using same” (The Board of Regents of the University of Oklahoma, priority 2001, dated 2015)
No end group written: not given here.

What was measured:
[1] = tested on: right atrial ganglionated plexus neurons; test: Activity of right atrial ganglionated plexus neuron populations during epicardial chemical stimuli; format: in vivo; conditions: ventricular sensory inputs
From the text: Arrow indicates application of veratridine to the epicardium of the left ventricle. At baseline, note the cycling of activity with a periodicity of 20 seconds. In the unstressed condition, this bursting is usually associated with increased coordination of activity between the two populations of neurons (see bottom trace).
Sub-populations of right atrial neurons that receive afferent inputs from sensory neurites in both ventricles are responsive to local mechanical stimuli and the nitric oxide donor nitroprusside. Neurons in at least one ganglionated plexus locus were activated by epicardial application of veratridine, bradykinin, the β1-adrenoceptor agonist prenaterol or the excitatory amino acid glutamate. […] These periods of coupled activity occurred every 30-50 second during basal states, as well as when neuronal activity was enhanced by chemical activation of their ventricular sensory inputs. It has been observed that neurons throughout one intrinsic cardiac ganglionated plexus receive inputs from mechano- and chemo-sensory neurites located in both ventricles. That such neurons respond to multiple chemical stimuli, including those liberated from adjacent adrenergic efferent nerve terminals, indicates the complexity of the integrative processing of information that occurs within the intrinsic cardiac nervous system.
Intraganglionic interactions within the intrinsic cardiac nervous system depend in large part on common shared afferent inputs and/or interconnections mediated via local circuit neurons. In order to evaluate these interactions, separate populations of neurons were recorded in the ventral right atrial ganglionated plexus (RAGP) in basal states and during discrete mechanical and chemical stimuli of ventricular neurites. In basal states, the coherence of activity generated by the two populations of RAGP neurons fluctuated with a periodicity of 30-50 s and with an average peak coherence of 0.88±0.03. Coherence was increased in conjunction with the enhanced neuronal activity evoked during exposure of ventricular sensory inputs to mechanical and chemical (nitroprusside, veratridine, bradykinin, adrenergic agonists or glutamate) stimuli.

[2] = tested on: canine intrinsic cardiac neurons; test: Intracellular recording of canine intrinsic cardiac neurons in vitro, ACh pulse with or without hexamethonium; format: cell-based; conditions: hexamethonium 100 μM for 5 min in perfusate
Method: The horizontal bar under the traces indicates application of a 10 ms pulse of ACh (1 mM) from the tip of a pipette placed near the ganglion. A, CONTROL. […] DCX. […] During the repolarization phase, the membrane potential began to oscillate with APs being discharged on oscillatory peaks. […] DCX. […] The bursting of activity is reflective of the enhanced muscarinic receptor-mediated responses of these neurons.
Intrinsic cardiac neurons remain responsive to cholinergic synaptic inputs. The cholinergic receptor systems are differentially affected by disruption of nerve inputs to the ICN, with muscarinic responsiveness being enhanced (FIG. 9). Non-cholinergic neurotransmitters can modulate the activity of these neurons. FIG. 10 illustrates the interaction between acetylcholine and the peptide, substance P.

[3] = tested on: canine nodose ganglion afferent neuron; test: Nodose ganglion afferent neuron activity after epicardial CPA; format: in vivo; conditions: CPA via 1 cm×1 cm pledget on ventral left ventricular epicardium
Method: Panel B was obtained 1 minute after terminating CPA application.

T3 neurons = test: T3 neuron activity with intrapericardial bradykinin and glutamate pledget on C1-C2 segments; format: in vivo, rats
From the text: FIGS. 19A-19F show responses of T3 cell to chemical stimulation of glutamate before and after rostral C1 spinal transection. The responses were evoked by intrapericardial injections of bradykinin (BK). Saline was used as the control. Pledgets of glutamate placed on the C1-C2 dorsal spinal cord (B) decreased the discharge rate of the cell for the three minute period it was applied. The background activity recovered after glutamate was removed. […] The presence of glutamate attenuated this response (E). The increased rate of discharge to BK injections was again observed when glutamate was removed (F). In each panel, action potentials were recorded on a rate histogram.
Originally, it was assumed that supraspinal pathways are necessary for descending inhibitory effects of visceral afferents on sensory neurons. […] Thus, it appears that the upper cervical segments play an important role in the hierarchy that controls the efferent outflow to the intrathoracic and intrinsic cardiac nervous system. […]
Descending modulation of thoracic cardiac nociceptive transmission by upper cervical spinal neurons. […] Methods: Extracellular potentials of single T3 neurons were recorded in pentobarbital anesthetized male rats. […]

[4] = tested on: intrinsic cardiac neurons; test: Activity generated by right atrial (intrinsic cardiac) neurons recorded in situ in anesthetized dogs; format: in vivo, dog; conditions: for enhancement of intrinsic cardiac neuronal activity: epicardial veratridine 7.5 μM
intracardiac neuron = test: Inhibition of ACh-evoked responses by substance P, intracellular recording; format: cell-based; conditions: bath application of 10 μM substance P; 28 ms puffs of ACh 10 mM
Method: Local application of ACh evoked action potentials. These ACh evoked potentials were blocked during bath application of 10 μM substance P (see horizontal bar).

[5] = tested on: right atrial ganglionated plexus; test: ISF, aorta and coronary sinus catecholamines (microdialysis) during ANG II infusion into blood supply of the RAGP; format: in vivo, dog
Method: FIGS. 8A-8C show ISF, aorta and coronary sinus norepinephrine (NE) and epinephrine (EPI) levels in response to stellate stimulation (4 Hz), angiotensin II (ANG II) infusion (100 μM, 1 ml/min) into the blood supply for the Right Atrial Ganglionated Plexus (RAGP) and Dorsal Cord Activation (DCA, 50 Hz, 200 μsec, 90% motor threshold). ISF fluids were sampled using the microdialysis techniques summarized in Aim 3.
LV dP/dt correlated with ISF NE release. However, NE spillover into the coronary sinus occurred only during sympathetic efferent neuronal stimulation (FIG. 8C). […] This differential release of catecholamines from cardiac nerves occurred in spite of a 40-fold higher NE compared to EPI content in the dog LV myocardium (237±33 vs. 6.4±1.0 ng/g). […] Dorsal cord activation (FIG. 8B) evoked a release of EPI into the ISF equivalent to stellate stimulation, but with only a modest increase in ISF NE.

right atrial neurons = test: Ventricular unipolar electrograms (ST segment) with ANG II administered to right atrial neurons, ameroid constrictor chronic ischemia; format: in vivo; conditions: ANG II 40 μg/min
Method: Under basal conditions, electrograms display slight ST segment displacement (panel B). Transient rapid ventricular pacing (240/min for 1 min), used to increase myocardial O2 demand, precipitates ischemic episodes. In the first beats following rapid pacing, ST segment displacement is inhomogeneously augmented in the LCx territory. Marked ST segment depression (−2 to −6 mV) occurs in some areas, whereas ST elevation (+2 to +15 mV) develops in others (panel C). […] Note that the ST changes, induced by ANG II, occurred at the apical margin of the plaque electrode, i.e., at the periphery of the LCx territory (Panel D). In contrast, the changes induced by transient rapid pacing occurred at a more central location in the LCx territory (panel C).
Note that the ST changes occurred at the apical margin of the plaque electrode (panel B). Thus, the ST segment changes are caused by direct or indirect activation of ganglionated plexus neurons that project efferent axons to the specific ventricular areas in which the changes occurred. […]
Dorsal column activation stabilizes ischemic myocardial electrical dysfunction. […] Four weeks later, under general anesthesia multiple ventricular unipolar electrograms were recorded in the normal and ischemic left ventricle during basal states and when ANG II (40 μg/min; 1 minute) was administered to right atrial neurons before and after DCA. […]

[6] = tested on: intrinsic cardiac neurons; conditions: direct application; cited from earlier work

## CC(C)NC[C@H](O)COc1ccc(O)cc1 [prenaterol]
[1]
  neuronal response to epicardial application: activated

## C[N+](C)(C)CCCCCC[N+](C)(C)C [Hexamethonium]
[2]; CONTROL neuron
  ACh-induced depolarization: reduced the amplitude of ACh-induced depolarization relative to the control state; no APs were generated
[2]; DCX neuron
  ACh-induced depolarization: reduced the amplitude of ACh-induced depolarization; AP discharge was facilitated

## OC[C@H]1O[C@@H](n2cnc3c(NC4CCCC4)ncnc32)[C@H](O)[C@@H]1O [CPA]
[3]
  activity generated by nodose ganglion afferent neuron: enhancement of the activity

## N[C@@H](CCC(=O)O)C(=O)O [glutamate]
[1]
  neuronal response to epicardial application: activated
T3 neurons; after transection at the rostral C1 spinal cord
  spontaneous activity of T3 neurons and excitatory inputs from cardiac sensory neurons: still reduced
T3 neurons; glutamate pledget 1 M, 1-3 min, on C1-C2
  T3 neurons in which spontaneous activity and/or excitatory responses to intrapericardial bradykinin were inhibited: 77%

## nitroprusside
[1]
  neuronal response to epicardial application: responsive

## OC[C@@H](O)[C@H]1O[C@@H]2O[C@H](C(Cl)(Cl)Cl)O[C@@H]2[C@H]1O [alpha chloralose]
[4]; dog, in vivo, iv
  effect of each bolus on neuronal activity: suppressed neuronal activity for a few minutes

## substance P (RPKPQQFFGLM-NH2; ends and bridges not checked; UniProt P20366 58-68, looked up)
Intracardiac neuron
  ACh evoked potentials: blocked

## CC(C)(C)NCC(O)c1cc(O)cc(O)c1 (centres unmarked) [terbutaline]
[1]
  neuronal response to epicardial application: inconsistent neuronal responses

## angiotensin II (DRVYIHPF; Angiotensin-2; UniProt P01019 25-32, looked up) [ANG II]
[1]
  neuronal response to epicardial application: inconsistent neuronal responses
[5]; ANG II 100 μM, 1 ml/min into RAGP blood supply, anesthetized dog
  NE concentration in the cardiac interstitial fluid (ISF): to the same extent as achieved during electrical stimulation of the stellate ganglia
[5]; ANG II stimulation
  EPI spillover into the coronary sinus: Neither stellate nor ANG II stimulation evoked EPI spillover
Right atrial neurons; ischemic ventricle, 1 minute
  regional ST segment changes: increased the area and magnitude
Right atrial neurons; normal myocardium
  electrical behavior: minimal changes

## NC[C@H](O)c1ccc(O)c(O)c1 [norepinephrine]
[6]
  identified intrinsic cardiac neurons whose properties are modified: about 25%

## COc1ccc(C(=O)O[C@H]2CC[C@@]3(C)[C@@H]4CC[C@H]5[C@]6(O)C[C@H](O)[C@@]7(O)[C@@H](CN8C[C@@H](C)CC[C@H]8[C@@]7(C)O)[C@]6(O)C[C@@]53O[C@]24O)cc1OC [veratridine]
[4]; after application of SCS, four animals, from 11.8±2.5
  intrinsic cardiac neuronal activity with veratridine: 16.5±4.6 impulses/min
[4]; after completing the protocols, all 10 dogs, from 25.6±5.7
  intrinsic cardiac neuronal activity with veratridine: 40.6±12.5 impulses/min
[4]; before application of SCS, four animals
  intrinsic cardiac neuronal activity with veratridine: 40.5±26.7
[4]; after application of SCS, four animals, no significant difference
  enhancement of intrinsic cardiac neuronal activity: 39%
[4]; before application of SCS, four animals, P<0.05
  enhancement of intrinsic cardiac neuronal activity: 124%
[4]; epicardial veratridine, after completing the protocols (following SCS and regional ventricular ischaemia), all 10 dogs, P<0.05
  increase of intrinsic cardiac neuronal activity: 58%
